The values below come from patent US4172829A, “2,9-Disubstituted adenine derivatives and their use as non-adrenergic bronchodilators” (Bristol-Myers Company, priority 1978, dated 1979).

Values after ≈ are worked out from the molar mass of the structure shown. Where only a bound is given, the exact number is not on record here.

One data set relates to platelet aggregation. The following applies: Chem Pharm. Bull., 25(7), 1811-1821 (1977); cited from earlier work.
Data set [1] deals with Tracheal chains of guinea pig. Briefly: In vitro bronchodilator activity, isolated tracheal chain (ITC). In kind it is cell-based. The following applies: Cavia porcellus, relaxation 50% of the maximum response to 0.1 mcg./ml. of isoproterenol. As to the method: Tracheal chains of guinea pig were prepared by the method described by A. Akcasu in Arch. Int. Pharmacodyn. Ther., 122, 201 (1959). The response to each test compound was recorded by the Magnus method and expressed as a percentage of the maximum response obtained with 0.1 mcg./ml. of isoproterenol prior to each experiment.

Data set [2] concerns intratracheal pressure (ITP) of guinea pig. In words: In vivo bronchodilator activity, intratracheal pressure test (ITP). The settings on record: Cavia porcellus, 50% decrease in intratracheal pressure. As to the method:
The trachea of anesthetized guinea pig was cannulated and the ITP recorded on a polygraph under artificial ventilation. Arterial blood pressure (ABP; measure of hypotensive activity) was also measured during the experiment. Data was obtained for both intravenous and intraduodenal administration.

Data set [3] concerns Arterial blood pressure (ABP). Briefly: In vivo hypotensive activity, arterial blood pressure (ABP). Further details: species or system guinea pig. The following applies: arterial blood pressure lowering, ED20, reduces ABP by 20%. As to the method:
Pharmac., 21, 379 (1969). The trachea of anesthetized guinea pig was cannulated and the ITP recorded on a polygraph under artificial ventilation. Arterial blood pressure (ABP; measure of hypotensive activity) was also measured during the experiment. Data was obtained for both intravenous and intraduodenal administration.

A short description of data set [4]: Separation of bronchodilator and cardiovascular effects (ABP/ITP). The following applies: guinea pig, in vivo, ratio of hypotensive ED20 / bronchodilating ED50. As to the method: To assess the separation of desirable bronchodilator activity from undesirable cardiovascular (hypotensive) effect in the test compounds, the ratio of hypotensive ED20 /bronchodilating ED50 was calculated and indicated in Table 1.

The subject of another data set is bronchial constriction. The settings on record: prior art; bronchial asthma; cited from earlier work.
For data set [5] the following is noted: known disadvantages, prior art; cited from earlier work.
The conditions of data set [6]: prior art; cited from earlier work.

Consider `Nc1nc(SC2CCCC2)nc2c1ncn2C1CCCC1`, for which the “inhibition of platelet aggregation (in words)” value in the data set on platelet aggregation is reported as “slightly effective”.
`CCOc1nc(N)c2ncn(C3CCCCC3)c2n1` [C2 H5 O / drawing 30, 2-Ethoxy-9-cyclohexyl-9H-adenine]: it took 0.18 µg/mL (≈ 0.689 µM) to reach a half-maximal effect in data set [1] (EC50). Besides, the ED50 (as a rule, the midpoint of the dose-response relation) in data set [2] (intravenous) was found to be 0.37 mg/kg. In data set [3] (intravenous), the ED20 was 2.5 mg/kg. Besides, the selectivity ratio in data set [4] (intravenous) stood at 6.8.
Turning to `CCOc1nc(N)c2ncn(C3C=CCCC3)c2n1` (stereo not shown) [C2 H5 O / drawing 31, 9-(2-Cyclohexenyl)-2-ethoxy-9H-adenine], in data set [1], the EC50 (usually the concentration needed to bring the measured effect to its halfway point) is 0.088 µg/mL (≈ 0.339 µM). Also, the ED50 in data set [2] (intraduodenal) came out at 0.62 mg/kg; in data set [2] (intravenous), 0.33 mg/kg. Besides, the ED20 was determined as 12 mg/kg in data set [3] (intraduodenal) and 4.0 mg/kg in data set [3] (intravenous). Moreover, the selectivity ratio in data set [4] (intraduodenal) was found to be 19; in data set [4] (intravenous), 12.
On to `Nc1nc(Cl)nc2c1ncn2C1C=CCCC1` (stereo not shown) [Cl / drawing 31, 2-Chloro-9-(2-cyclohexenyl)-9H-adenine], for which the response in data set [1] was half-maximal at 0.12 µg/mL (≈ 0.481 µM) (EC50). The compound also displayed an ED50 in data set [2] (intravenous) of 0.15 mg/kg. The ED20 in data set [3] (intravenous) turned out to be 2.5 mg/kg. Further, the selectivity ratio in data set [4] (intravenous) came out at 17.
For the compound `Cn1c(=O)c2[nH]cnc2n(C)c1=O` [Theophylline], in the data set on bronchial constriction, the “bronchodilator activity (in words)” value is “potent and useful non-adrenergic bronchodilator”.
`Cn1c(=O)c2[nH]cnc2n(C)c1=O` [aminophylline] yielded an EC50 in data set [1] of 16.6 µg/mL (≈ 92.1 µM). Moreover, the “bronchodilator activity (in words)” value in the data set with bronchial constriction is on record as “effective bronchodilator when given orally”. Also, the “side effects (in words)” value in data set [5] was “gastric irritation and cardiovascular and central nervous system side effects”. For the same compound, the “solubility (in words)” value in data set [6] is given as “readily soluble”.
As to `CC(C)COc1nc(N)c2ncn(C3CCCCC3)c2n1` [isO-C4 H9 O / drawing 30, 2-Isobutoxy-9-cyclohexyl-9H-adenine], in data set [1], the midpoint of the response, the EC50, lay at 0.31 µg/mL (≈ 1.07 µM). The compound also showed an ED50 in data set [2] (intravenous) of more than 3 mg/kg. This compound also came in with an ED20 in data set [3] (intravenous) of more than 3 mg/kg.
Compound `CC(C)COc1nc(N)c2ncn(C3C=CCCC3)c2n1` (stereo not shown) [iso-C4 H9 O / drawing 31, 9-(2-Cyclohexenyl)-2-isobutoxy-9H-adenine] returned an EC50 in data set [1] of 0.41 µg/mL (≈ 1.43 µM). Besides, the ED50 in data set [2] (intravenous) was more than 3 mg/kg. The ED20 in data set [3] (intravenous) was determined as 2.4 mg/kg.
`CCCOc1nc(N)c2ncn(C3CCCCC3)c2n1` [n-C3 H7 O / drawing 30, 9-Cyclohexyl-2-n-propoxy-9H-adenine]: in data set [1], a half-maximal effect (EC50) was put at 0.026 µg/mL (≈ 0.0944 µM). Also, the ED50 was determined as 1.2 mg/kg in data set [2] (intraduodenal) and 0.37 mg/kg in data set [2] (intravenous). Also, the ED20 in data set [3] (intraduodenal) worked out at 18 mg/kg; in data set [3] (intravenous), 4.4 mg/kg. The selectivity ratio in data set [4] (intraduodenal) was found to be 15; in data set [4] (intravenous), 12.
`CCCOc1nc(N)c2ncn(C3C=CCCC3)c2n1` (stereo not shown) [n-C3 H7 O / drawing 31, 9-(2-Cyclohexenyl)-2-n-propoxy-9H-adenine] showed an EC50 in data set [1] of 0.027 µg/mL (≈ 0.0988 µM). Moreover, the ED50 came to 1.2 mg/kg in data set [2] (intraduodenal) and 0.34 mg/kg in data set [2] (intravenous). Moreover, the ED20 in data set [3] (intraduodenal) is 2.4 mg/kg; in data set [3] (intravenous) it was 2.0 mg/kg. Further, the selectivity ratio turned out to be 2 in data set [4] (intraduodenal) and 5.9 in data set [4] (intravenous).
In data set [1], `CCCCOc1nc(N)c2ncn(C3CCCCC3)c2n1` [n-C4 H9 O / drawing 30, 2-n-Butoxy-9-cyclohexyl-9H-adenine] had an EC50 of 0.025 µg/mL (≈ 0.0864 µM). In addition, the ED50 in data set [2] (intraduodenal) came to 1.4 mg/kg; in data set [2] (intravenous) it was 0.003 mg/kg. Besides, the ED20 was 8.3 mg/kg in data set [3] (intraduodenal) and 4.4 mg/kg in data set [3] (intravenous). Besides, the selectivity ratio is 5.9 in data set [4] (intraduodenal) and 1470 in data set [4] (intravenous).
In turn, `CCCCOc1nc(N)c2ncn(C3C=CCCC3)c2n1` (stereo not shown) [n-C4 H9 O / drawing 31, 9-(2-Cyclohexenyl)-2-n-butoxy-9H-adenine] returned an EC50 in data set [1] of 0.045 µg/mL (≈ 0.157 µM). The compound further gave an ED50 in data set [2] (intravenous) of 0.65 mg/kg. For the same compound, the ED20 in data set [3] (intravenous) was more than 3 mg/kg. The selectivity ratio in data set [4] (intravenous) was more than 4.8.
`CCCCCOc1nc(N)c2ncn(C3CCCCC3)c2n1` [n-C5 H11 O / drawing 30, 2-n-Pentyloxy-9-cyclohexyl-9H-adenine] displayed an EC50 in data set [1] of 1.8 µg/mL (≈ 5.93 µM). Also, in data set [2] (intravenous), the ED50 is more than 3 mg/kg. The ED20 in data set [3] (intravenous) was more than 3 mg/kg.
In turn, `CCCCCOc1nc(N)c2ncn(C3C=CCCC3)c2n1` (stereo not shown) [n-C5 H11 O / drawing 31, 9-(2-Cyclohexenyl)-2-n-pentyloxy-9H-adenine] had an EC50 in data set [1] of 0.59 µg/mL (≈ 1.96 µM). For the same compound, the ED50 in data set [2] (intravenous) was more than 3 mg/kg. Also, the ED20 in data set [3] (intravenous) is more than 3 mg/kg.
With `CCCCCCOc1nc(N)c2ncn(C3CCCCC3)c2n1` [n-C6 H13 O / drawing 30, 2-n-Hexyloxy-9-cyclohexyl-9H-adenine], in data set [1], the EC50 was 1.4 µg/mL (≈ 4.41 µM). The compound further came in with an ED50 in data set [2] (intravenous) of more than 3 mg/kg. The compound further gave an ED20 in data set [3] (intravenous) of more than 3 mg/kg.
`CCCCCCOc1nc(N)c2ncn(C3C=CCCC3)c2n1` (stereo not shown) [n-C6 H13 O / drawing 31, 9-(2-Cyclohexenyl)-2-n-hexyloxy-9H-adenine]: in data set [1], the EC50 was more than 3 µg/mL. Besides, in data set [2] (intravenous), the ED50 was more than 3 mg/kg. The ED20 in data set [3] (intravenous) is 2.7 mg/kg.
